Legend:
Conditions in all cases: deblocked single compounds
E. coli imp- = assay: Antimicrobial assay (MIC), E. coli imp-; type: cell-based, Escherichia coli
Description: In this assay, the strain E. coli imp- obtained from Spenser Bensen (Sampson., B. A., Misra, R. & Benson, S. A. (1989), Genetics, 122, 491-501, Identification and characterization of a new gene of Escherichia coli K-12 involved in outer membrane permeability) is used. To initiate the exponential phase of bacterial growth prior to the assay, a sample of bacteria is grown overnight at 37° C. in Luria broth. This bacteria is then used to reinoculate sample wells of 96-well microtiter plates. The assays are carried out in the 96-well microtiter plates in 150 μL volume with approximately 1×10^6 cells per well.
Bacteria in Luria broth (75 μL) is added to the compound mixtures in solution in 75 μL water in the individual well of the microtiter plate. Final concentrations of the compound mixtures are 25 μM, 10 μM and 1 μM. Each concentration of the compound mixtures are assayed in triplicate. The plates are incubated at 37° C. and growth monitored over a 24 hour period by measuring the optical density at 595 nm using a BioRad model 3550 UV microplate reader. The percentage of growth relative to a well containing no compound is determined. […]
Libraries in accordance with the present invention have been tested for antibacterial activity utilizing assays that determine the minimum inhibitory concentration (MIC). […] Activity has been detected in a number of libraries of the present invention.

Streptococcus pyogenes = assay: Antimicrobial assay (MIC), Streptococcus pyogenes; type: cell-based
Staphylococcus aureus = assay: Antimicrobial assay (MIC), Staphylococcus aureus; type: cell-based
Description: In this assay, the strain S. aureus ATCC 25923 (American Type Culture Collection) is used in the bioassay. To initiate the exponential phase of bacterial growth prior to the assay, a sample of bacteria is grown overnight at 37° C. in typtocase soy broth (BBL). This bacteria is then used to reinoculate sample wells of 96-well microtiter plates. The assays are carried out in the 96-well microtiter plates in 150 μL volume with approximately 1×10^6 cells per well.
Bacteria in typtocase soy broth (75 μL) is added to the compound mixtures in solution in 75 μL water/4% DMSO in the individual well of the microtiter plate. Final concentrations of the compound mixtures are 25 μM, 10 μM and 1 μM. Each concentration of the compound mixtures are assayed in triplicate. The plates are incubated at 37° C. and growth monitored over a 24 hour period by measuring the optical density at 595 nm using a BioRad model 3550 UV microplate reader. The percentage of growth relative to a well containing no compound is determined. Ampicillin and tetracycline antibiotic positive controls are concurrently tested in each screening assay.

Entercoccus hirae = assay: Antimicrobial assay (MIC), Entercoccus hirae; type: cell-based
Escherichia coli = assay: Antimicrobial assay (MIC), Escherichia coli; type: cell-based
Klebsiella pneumoniae = assay: Antimicrobial assay (MIC), Klebsiella pneumoniae; type: cell-based

Substance | minimum inhibitory activity, E. coli. imp- (E. coli imp-) [µM] | minimum inhibitory activity, Streptococcus pyogenes (Streptococcus pyogenes) [µM] | minimum inhibitory activity, Staphylococcus aureus (Staphylococcus aureus) [µM] | minimum inhibitory activity, Entercoccus hirae (Entercoccus hirae) [µM] | minimum inhibitory activity, Escherichia coli (Escherichia coli) [µM] | minimum inhibitory activity, Klebsiella pneumoniae (Klebsiella pneumoniae) [µM]
6-[(2-aminobenzothiazole acetyl)piperazinyl]-2-[(N-m-triflouromethylbenzyl)piper-azinyl]-N9-[(N′-t-Boc-N″-acetyl)piperazinyl]purine [Compound 50] | 3 | 3 to 6 | 3 to 6 | 3 | >100 | 3 to 6
6-[(2-Aminobenzothiazole acetyl)piperazinyl]-2-[(m-chlorobenzyl)-piperazinyl]-N9-[(N′-t-Boc-N″-acetyl)piperazinyl]purine [Compound 46] | 3 to 6 | 3 to 6 | 3 to 6 | 3 to 6 | 50 to 100 | 3 to 6

From patent US6991902B2, “Nucleobase heterocyclic combinatorialization” (ISIS Pharmaceuticals, Inc., priority 1997, dated 2006)
